Holding throughout (assay type): in vivo
The subject of assay [1] is total cholesterol. In words: Human clinical trials: total cholesterol levels in participant blood samples. The following applies: majority of clinical trial participants; with or without amino acids; absence of additional measures. As to the method:
(§1) Two challenges were being considered at the beginning of the human clinical trial. The first challenge was to document the stand-alone efficacy of HTA-8 as a new growth hormone releasing factor. The second was to determine if HTA-8 could be combined with other common releasing factors to create an even better result. As such, two separate trials were conducted. • Trial #1/HTA-8: Ten individuals ranging in age from 30 to 69 years were given 30 ng of HTA-8 in the form of an aerosolized oral spray before bed, over a 30-32 day period. • Trial #2/HTA-8+: Fifteen individuals ranging in age from 38 to 70 years of age were given an effervescent tablet to take once daily over a 25-36 day period that contained 20 ng of HTA-8 in combination with 1200 mg each of the amino acids lysine and arginine. (Previous published experimentation has shown that the combination of lysine and arginine in the doses used in Trial #2 is an effective GH releasing factor.)
The principal hormone measured in order to establish whether there is an increase in growth hormone secretion is IGF-1. IGF-1 concentrations and total cholesterol levels were determined by collecting participant blood samples at the beginning of the studies and at their conclusion. […]

A short description of assay [2]: Human clinical trials: ultrasound-based body composition analysis and body weight. Conditions: all study participants in both clinical trials. As to the method: as §1
A short description of assay [3]: Human clinical trials: radial bone density by ultrasonographic technique. The following applies: subjects taking HTA-8 alone (Trial #1). As to the method:
as §1
An increase in bone density decreases the chance of fracture and […]. Bone density is a particularly important issue as the body ages, regardless of sex. During the Clinical Trials, radial bone density was measured using an ultrasonographic technique.

For assay [4], the system named is IGF-1. Kind of assay: Human clinical trials: IGF-1 concentrations in participant blood samples. How it is done: as §1
The principal hormone measured in order to establish whether there is an increase in growth hormone secretion is IGF-1. IGF-1 concentrations and total cholesterol levels were determined by collecting participant blood samples at the beginning of the studies and at their conclusion.

As for “H-D-Ala-D-2-Nal-Trp-H is-Trp-D-Phe-Lys-N H2 [HTA-8]”, the “change in total cholesterol levels over the study period” value in assay [1] is “clinically significant decrease”. For the same substance, in assay [2], the “change in adipose tissue mass” value was “decrease in adipose tissue mass” and the “change in lean muscle mass” value is recorded as “increase in lean muscle mass”. Further, the “average increase in bone density” value in assay [3] was determined as 6.8%. Moreover, the maximum IGF-1 level measured in all clinical trial participants after the study period in assay [4] (Trial #1: 30 ng HTA-8 oral spray before bed, 30-32 days, person) came to 410 ng/mL. The “GHRF activity (IGF-1 response)” value in assay [4] (Trial #1: HTA-8 alone, oral spray) is “bona fide, stand-alone GHRF”. Also, the IGF-1 level on average, after (increased to) in assay [4] (Trial #2: effervescent tablet once daily, 20 ng HTA-8 with 1200 mg each lysine and arginine, after 25-36 day period) worked out at 202 ng/mL. In addition, the IGF-1 level on average, before (increased from) in assay [4] (Trial #2: effervescent tablet once daily, 20 ng HTA-8 with 1200 mg each lysine and arginine, beginning of study) turned out to be 170 ng/mL.

(Values after patent US10111929B1, “Growth hormone releasing factor analogs and uses” (EZ IP, LLC, priority 2017, dated 2018).)
